“Also recorded” adds a separate entry of the source.
What was measured:
[1] = Toxic signs (salivation) in rats after sciatic nerve injection; assay type: in vivo, Male Sprague-Dawley rats; settings: co-injection of VTD with EPI
Experimental: Male Sprague-Dawley rats (200-250 g) were divided into 4 groups of 10 each. 0.1 ml of VTD alone at 0.2, 0.5 or 0.7 mM or vehicle (saline) was injected at the depression between the femoral head and the hip. The same animals were injected with VTD with epinephrine (EPI, 1:200,000) one week later, using the previously uninjected leg. Motor and sensory functions were rated by the respective monitoring of toe curling and/or foot dragging, and by testing the nocifensive withdrawal reflex to pinch of the foot pad of the injected hindlimb. Saline alone affected neither function.

[2] = test system: rat sciatic nerve; assay: Sensory block of rat sciatic nerve in vivo (nocifensive withdrawal reflex to pinch of the foot pad); design: species or system Male Sprague-Dawley rats; settings: 2%=74 mM
[3] = test system: rat sciatic nerve; assay: Motor block of rat sciatic nerve in vivo (toe curling and/or foot dragging); design: species or system Male Sprague-Dawley rats

## CNC[C@H](O)c1ccc(O)c(O)c1 [EPI, epinephrine]
[1]
  Effect of EPI co-injection on VTD toxicity: decrease VTD-associated toxicity; also recorded: decreases the toxicity associated with higher concentrations of VTD

## CCN(CC)CC(=O)Nc1c(C)cccc1C [lidocaine]
[2]
  Sensory blockade duration: 78 min
  Sensory blockade onset: 1.3 min
  Sensory blockade, % of rats: 100%
  Sensory blockade, fraction of rats: 5/5
[3]; 2%=74 mM
  Motor blockade duration: 75 min
  Motor blockade onset: 1.9 min
  Motor blockade, % of rats: 96%
  Motor blockade, fraction of rats: 216/224

## CCCCN1CCCCC1C(=O)Nc1c(C)cccc1C (stereo not shown) [bupivacaine]
[3]; 0.75%=23 mM
  Motor blockade duration: 161 min
  Motor blockade onset: 4.8 min
  Motor blockade, % of rats tested: 86%
  Motor blockade, fraction of rats tested: 205/239

Source: patent US5288723A, “A composition and a method of using veratridine and epinephrine as a local anesthetic” (priority 1991, dated 1994)
